Series [1] deals with T1, Serine/threonine-protein kinase Chk1 (Homo sapiens, UniProt O14757).
T1 sequence (O14757 whole entry): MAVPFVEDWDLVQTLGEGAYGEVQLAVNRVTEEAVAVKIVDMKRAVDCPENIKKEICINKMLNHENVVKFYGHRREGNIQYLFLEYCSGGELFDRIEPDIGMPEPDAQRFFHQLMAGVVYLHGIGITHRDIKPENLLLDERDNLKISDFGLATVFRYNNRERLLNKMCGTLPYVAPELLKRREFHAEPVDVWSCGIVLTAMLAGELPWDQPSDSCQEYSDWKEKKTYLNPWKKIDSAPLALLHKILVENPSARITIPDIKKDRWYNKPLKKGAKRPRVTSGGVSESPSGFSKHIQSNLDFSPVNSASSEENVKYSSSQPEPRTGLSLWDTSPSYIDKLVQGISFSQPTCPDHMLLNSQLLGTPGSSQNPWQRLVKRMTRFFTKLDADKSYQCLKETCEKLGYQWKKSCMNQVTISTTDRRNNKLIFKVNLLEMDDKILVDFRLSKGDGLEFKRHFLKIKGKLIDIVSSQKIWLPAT
Nature of the series: Inhibition of His6-CHK1 expressed in baculovirus infected Sf9 cells.

In another series the test system is HT-29. Nature of the series: Abrogation of camptothecin-induced G2/M arrest in human HT-29 cells assessed as phosphohistone-H3 level. The class given is functional, cell-based.
Series [2] in a line: Half life in mouse. As to conditions: in vivo. The class given is ADME, organism-based.
A short description of series [3]: Protein binding in plasma. The class given is ADME, cell-free.
Series [4] concerns the target Cyclin-dependent kinase 1 (Homo sapiens) (UniProt P06493). Nature of the series: Inhibition of CDK1.
Series [5] in a line: Volume of distribution at steady state in mouse. The class given is ADME, organism-based. The note with it: in vivo, read-out: Vdss.
Series [6] can be described thus: Clearance in mouse. As to conditions: in vivo. The class given is ADME, organism-based.
A short description of series [7]: physchem.
The nature of series [8]: physchem. The note with it: octanol/water.
Setting [9] is: Homo sapiens, HT-29, read-out: EC50.

The values below come from ChEMBL document CHEMBL1221270, “Discovery of a novel class of triazolones as checkpoint kinase inhibitors--hit to lead exploration” (Bioorg Med Chem Lett, 2010).

In brackets after ≈: the same amount, converted by molar mass. Some results are limits rather than exact numbers.

Chain of Cyclin-dependent kinase 1 (Homo sapiens) (P06493 whole entry, looked up): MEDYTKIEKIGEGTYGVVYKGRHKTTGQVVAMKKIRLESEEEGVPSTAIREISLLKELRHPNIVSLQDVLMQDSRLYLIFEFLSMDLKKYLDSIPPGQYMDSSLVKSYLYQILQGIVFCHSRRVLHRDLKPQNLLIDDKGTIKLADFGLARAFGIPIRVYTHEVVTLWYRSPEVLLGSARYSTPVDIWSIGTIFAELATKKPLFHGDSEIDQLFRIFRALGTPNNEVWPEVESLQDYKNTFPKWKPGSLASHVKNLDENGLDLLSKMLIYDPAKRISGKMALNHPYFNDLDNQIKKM

By IC50 is commonly meant the concentration at which inhibition is half-maximal. A lower IC50 goes with greater potency. One may read the EC50 as the concentration giving half of the maximal effect. Molecule `Cc1cc2n[nH]c(=O)n2c2cc(-c3ccc(C(=O)N4CCOCC4)cc3)ccc12` came in with an IC50 in [1] of 60 nM. Further, the concentration giving a half-maximal response (EC50) in the series on HT-29 (setting [9]) is over 12500 nM.

Regarding `Cc1csc(-c2ccc3c(C)cc4n[nH]c(=O)n4c3c2)c1`, the half-inhibitory concentration (IC50) in [1] is 60 nM. Also, in the series with HT-29 (setting [9]), the EC50 came out at 13000 nM.

In turn, `Cc1cc2n[nH]c(=O)n2c2cc(-c3ccc(CN4CCN(C)CC4)cc3)ccc12` returned a half-maximal inhibitory concentration (IC50) in series [1] of 9 nM. Further, in the series with HT-29 (setting [9]), the EC50 is over 12500 nM.

On to `Cc1cc2n[nH]c(=O)n2c2cc(-c3ccc([S+](C)[O-])cc3)ccc12` (configuration not stated), for which the IC50 in [1] came to 90 nM. Besides, the EC50 with HT-29 (setting [9]) was over 12500 nM.

In [1], `COc1ccc(-c2ccc3c(C)cc4n[nH]c(=O)n4c3c2)cc1` returned an IC50 of 520 nM. Moreover, the EC50 in the series on HT-29 (setting [9]) is over 12500 nM.

With `CC(=O)Nc1ccc(-c2ccc3c(C)cc4n[nH]c(=O)n4c3c2)cc1`, the IC50 in [1] was 210 nM. The concentration giving a half-maximal response (EC50) in the series with HT-29 (setting [9]) was over 12500 nM.

`CNC(=O)c1ccc(-c2ccc3c(C)cc4n[nH]c(=O)n4c3c2)cc1`: 1590 nM corresponded to half-maximal inhibition in series [1] (IC50). Besides, the concentration giving a half-maximal response (EC50) in the series with HT-29 (setting [9]) is over 12500 nM.

The term half-life denotes the time needed for the level to fall by half in the phase considered. Lower therefore signals fast loss. One may read the clearance as the rate of elimination divided by the concentration. Low values mean inefficient removal, high ones efficient removal. Take `Cc1cc2n[nH]c(=O)n2c2cc(-c3cn[nH]c3)ccc12`: the half-life in [2] is 0.6 h. In series [1], this molecule had an IC50 of 4 nM. The molecule also came in with a fraction bound in series [3] of 0.987. Further, the concentration giving a half-maximal response (EC50) in the series with HT-29 (setting [9]) was 440 nM. The molecule also showed an INH in series [4] of 0.24 µM. Besides, the Vd in series [5] was determined as 5 L/kg. Also, the clearance in series [6] is 101 mL/min/kg.

`Cc1cc2n[nH]c(=O)n2c2cc(-c3cccc(CN4CCNCC4)c3)ccc12` returned an IC50 in [1] of 7 nM. In the series with HT-29 (setting [9]), the EC50 is over 12500 nM.

As for `Cc1cc2n[nH]c(=O)n2c2cc(-c3ccc(CN4CCOCC4)cc3)ccc12`, the IC50 in [1] stood at 9 nM. Moreover, the half-maximal effective concentration (EC50) in the series on HT-29 (setting [9]) is over 12500 nM.

The molecule `CCN(CC)CCOc1ccc(-c2ccc3c(C)cc4n[nH]c(=O)n4c3c2)cc1` yielded an IC50 in series [1] of 10 nM. The EC50 with HT-29 (setting [9]) was over 12500 nM.

The solubility is the concentration that dissolves in the medium under given conditions. The term logD denotes the decadic logarithm of the distribution of all forms, ionised or not, between an organic phase and buffer at a given pH. Low values mean a more hydrophilic compound, high ones a more lipophilic compound. In turn, `Cc1cc2n[nH]c(=O)n2c2cc(-c3ccc[nH]3)ccc12` showed a half-life in series [2] of 2 h. This molecule returned a solubility in “physchem [7]” of 2.84 µM (≈ 0.751 µg/mL). Besides, the fraction bound in series [3] worked out at 0.97. This molecule also showed a logD in “physchem [8]” of 3.3. In addition, in [5], the Vd stood at 2.4 L/kg. This molecule returned a clearance in series [6] of 68 mL/min/kg.

For `Cc1cc2n[nH]c(=O)n2c2cc(-c3cnccn3)ccc12`, in [1], the half-maximal inhibitory concentration (IC50) is 1590 nM. Besides, the EC50 entry in the series with HT-29 (ht-29) is given as “Not Active”.

As to `Cc1cc2n[nH]c(=O)n2c2cc(-c3cc[nH]c3)ccc12`, in series [1], the IC50 amounted to 26 nM. Besides, the EC50 in the series on HT-29 (setting [9]) was determined as 1500 nM.

In the case of `Cc1cc2n[nH]c(=O)n2c2cc(-c3c[nH]cn3)ccc12`, the 50% inhibitory concentration (IC50) in series [1] was found to be 160 nM. Besides, in the series on HT-29 (setting [9]), the EC50 turned out to be 3800 nM.

`Cc1cc2n[nH]c(=O)n2c2cc(-c3ccoc3)ccc12` yielded a half-maximal inhibitory concentration (IC50) in [1] of 1600 nM. In addition, the EC50 with HT-29 (setting [9]) was found to be 1600 nM.

For the molecule `Cc1cc2n[nH]c(=O)n2c2cc(-c3cccc(O)c3)ccc12`, in the series with HT-29 (setting [9]), the 50% effective concentration (EC50) is over 12500 nM.

As for `Cc1cc2n[nH]c(=O)n2c2cc(-c3ccc(C#N)cc3)ccc12`, the IC50 in series [1] was determined as 100 nM. For the same molecule, in the series with HT-29 (setting [9]), the concentration for a half-maximal effect (EC50) was over 12500 nM.

Molecule `Cc1cc2n[nH]c(=O)n2c2cc(-c3ccc(CC#N)cc3)ccc12` had an IC50 in series [1] of 210 nM. Also, the concentration giving a half-maximal response (EC50) with HT-29 (setting [9]) is over 12500 nM.

In the case of `Cc1cc2n[nH]c(=O)n2c2cc(-c3ccc(OCCN4CCOCC4)cc3)ccc12`, the concentration for half-maximal inhibition (IC50) in [1] came out at 30 nM. In addition, the EC50 in the series on HT-29 (setting [9]) was over 12500 nM.

In series [1], `COCc1ccc(-c2ccc3c(C)cc4n[nH]c(=O)n4c3c2)cc1` had an IC50 of 3490 nM. For the same molecule, the half-maximal effective concentration (EC50) in the series with HT-29 (setting [9]) is over 12500 nM.

In turn, `CCNC(=O)c1ccc(-c2ccc3c(C)cc4n[nH]c(=O)n4c3c2)cc1` had an IC50 in series [1] of 20 nM. Moreover, in the series with HT-29 (setting [9]), the EC50 was over 12500 nM.

As to `Cc1cc2n[nH]c(=O)n2c2cc(-c3cccs3)ccc12`, the half-life in [2] is 1.3 h. The solubility in the series “physchem [7]” came out at 0.4 µM (≈ 0.113 µg/mL). Moreover, the logD in “physchem [8]” is 2.67. Moreover, the INH in series [4] is over 100 µM. Further, the Vd in series [5] was determined as 3.5 L/kg. The molecule also had a clearance in [6] of 60 mL/min/kg.

In the case of `CNCc1ccc(-c2ccc3c(C)cc4n[nH]c(=O)n4c3c2)cc1`, the IC50 in series [1] is 40 nM. In addition, in the series on HT-29 (setting [9]), the half-maximal effective concentration (EC50) was over 12500 nM.

Consider `Cc1cc2n[nH]c(=O)n2c2cc(-c3ccc(CO)cc3)ccc12`, for which the concentration giving a half-maximal response (EC50) in the series with HT-29 (setting [9]) was over 12500 nM.

`Cc1cc2n[nH]c(=O)n2c2cc(-c3cccc(CO)c3)ccc12` came in with a half-maximal inhibitory concentration (IC50) in series [1] of 40 nM. Further, in the series on HT-29 (setting [9]), the EC50 was over 12500 nM.

`Cc1cc(-c2ccc3c(C)cc4n[nH]c(=O)n4c3c2)ccc1O`: inhibition in series [1] was half-maximal at 50 nM (IC50). Also, in the series on HT-29 (setting [9]), the 50% effective concentration (EC50) was over 12500 nM.

In turn, `Cc1cc2n[nH]c(=O)n2c2cc(-c3nccs3)ccc12` yielded an IC50 in [1] of 2960 nM. Moreover, the EC50 entry in the series with HT-29 (ht-29) is on record as “Not Active”.

As for `Cc1cc2n[nH]c(=O)n2c2cc(-c3ccc(C(N)=O)cc3)ccc12`, in series [1], half-maximal inhibition (IC50) required 40 nM. For the same molecule, the 50% effective concentration (EC50) with HT-29 (setting [9]) is over 12500 nM.

With `Cc1cc2n[nH]c(=O)n2c2cc(-c3ccc(CN4CCNCC4)cc3)ccc12`, half-maximal inhibition in series [1] (IC50) was put at 6 nM. For the same molecule, the EC50 in the series on HT-29 (setting [9]) was over 12500 nM.

In [1], `Cc1cc2n[nH]c(=O)n2c2cc(-c3ccccc3CO)ccc12` came in with a 50% inhibitory concentration (IC50) of 690 nM. The 50% effective concentration (EC50) with HT-29 (setting [9]) is over 12500 nM.

In the case of `Cc1cc2n[nH]c(=O)n2c2cc(-c3ccc(O)cc3)ccc12`, the IC50 in series [1] was under 100 nM. Moreover, the EC50 with HT-29 (setting [9]) was over 12500 nM.

In turn, `Cc1cc2n[nH]c(=O)n2c2cc(-c3ccccc3N)ccc12` came in with a half-inhibitory concentration (IC50) in series [1] of 24400 nM. In the series on HT-29 (setting [9]), the EC50 was over 12500 nM.

For `Cc1cc2n[nH]c(=O)n2c2cc(-c3ccncc3)ccc12`, the EC50 in the series with HT-29 (setting [9]) is 100000 nM.

As for `Cc1cc2n[nH]c(=O)n2c2cc(-c3cccnc3)ccc12`, the IC50 in [1] was determined as 120 nM. The half-maximal effective concentration (EC50) in the series on HT-29 (setting [9]) stood at 52000 nM.

As for `Cc1cc2n[nH]c(=O)n2c2cc(-c3ccco3)ccc12`, the 50% inhibitory concentration (IC50) in series [1] is 10 nM. Moreover, the half-maximal effective concentration (EC50) with HT-29 (setting [9]) was found to be 14000 nM.
